Experimental data published in ChEMBL document CHEMBL3885881, “DrugMatrix”.

Species: Rattus norvegicus
Assay: DrugMatrix - Regimen: Daily Repeat
Type: toxicity, organism-based, Sprague-Dawley
Design: regimen Daily Repeat, gender Male, age 6-8 weeks
Settings: in vivo, iv, vehicle 100 % SALINE; for ABSOLUTE BASOPHIL / ABSOLUTE EOSINOPHIL / ABSOLUTE LYMPHOCYTE / ABSOLUTE MONOCYTE / ABSOLUTE SEGMENTED NEUTROPHIL / BASOPHIL / EOSINOPHIL / ERYTHROCYTE COUNT / HEMATOCRIT / HEMOGLOBIN / LEUKOCYTE COUNT / LYMPHOCYTE / MEAN CORPUSCULAR HEMOGLOBIN / MEAN CORPUSCULAR HEMOGLOBIN CONCENTRATION / MEAN CORPUSCULAR VOLUME / MONOCYTE / NEUTROPHIL / NUCLEATED RED BLOOD CELLS / PLATELET COUNT: tissue Blood; for ALANINE AMINOTRANSFERASE / ALBUMIN / ALKALINE PHOSPHATASE / ASPARTATE AMINOTRANSFERASE / BLOOD UREA NITROGEN / CARBON DIOXIDE / CHLORIDE / CHOLESTEROL / CREATINE PHOSPHOKINASE / CREATININE / GLUCOSE / LACTATE DEHYDROGENASE / LIPASE / PHOSPHORUS / POTASSIUM / SODIUM / TOTAL BILIRUBIN / TOTAL PROTEIN / URIC ACID: tissue Plasma
[1] = 0 mg/kg, 72 h, dose level Control, time 3 day
[2] = 0 mg/kg, 120 h, dose level Control, time 5 day
[3] = 20 mg/kg, 72 h, dose level Low, time 3 day
[4] = 20 mg/kg, 120 h, dose level Low, time 5 day

CN(N=O)C(=O)N[C@@H](C=O)[C@@H](O)[C@H](O)[C@H](O)CO [STREPTOZOCIN]
ABSOLUTE BASOPHIL [1]: 0 CELLS/uL | ABSOLUTE EOSINOPHIL [1]: 247.67 CELLS/uL | ABSOLUTE LYMPHOCYTE [1]: 13190.83 CELLS/uL | ABSOLUTE MONOCYTE [1]: 307.67 CELLS/uL | ABSOLUTE SEGMENTED NEUTROPHIL [1]: 1220.5 CELLS/uL | BASOPHIL [1]: 0% | EOSINOPHIL [1]: 1.67% | ERYTHROCYTE COUNT [1]: 5.47 x10E6/uL | HEMATOCRIT [1]: 33.98% | HEMOGLOBIN [1]: 12.65 G/DL | LEUKOCYTE COUNT [1]: 14.97 x10E3/uL | LYMPHOCYTE [1]: 88.17% | MEAN CORPUSCULAR HEMOGLOBIN [1]: 23.17 pg | MEAN CORPUSCULAR HEMOGLOBIN CONCENTRATION [1]: 37.23 G/DL | MEAN CORPUSCULAR VOLUME [1]: 62.25 fL | MONOCYTE [1]: 2% | NEUTROPHIL [1]: 8.17% | NUCLEATED RED BLOOD CELLS [1]: 0 /100WBC | PLATELET COUNT [1]: 1307.17 x10E3/uL | ALANINE AMINOTRANSFERASE [1]: 39.67 u/L | ALBUMIN [1]: 4.08 G/DL | ALKALINE PHOSPHATASE [1]: 383.17 u/L | ASPARTATE AMINOTRANSFERASE [1]: 88.83 u/L | BLOOD UREA NITROGEN [1]: 18.5 mg/dL | CARBON DIOXIDE [1]: 27.5 mmol/L | CHLORIDE [1]: 103 MEQ/L | CHOLESTEROL [1]: 67.33 mg/dL | CREATINE PHOSPHOKINASE [1]: 414.67 u/L | CREATININE [1]: 0.19 mg/dL | GLUCOSE [1]: 149.33 mg/dL | LACTATE DEHYDROGENASE [1]: 536.83 u/L | LIPASE [1]: 8.83 u/L | PHOSPHORUS [1]: 11.13 mg/dL | POTASSIUM [1]: 6.23 MEQ/L | SODIUM [1]: 144.42 MEQ/L | TOTAL BILIRUBIN [1]: 0.18 mg/dL | TOTAL PROTEIN [1]: 5.57 G/DL | URIC ACID [1]: 1.23 mg/dL | ABSOLUTE BASOPHIL [2]: 0 CELLS/uL | ABSOLUTE EOSINOPHIL [2]: 158.83 CELLS/uL | ABSOLUTE LYMPHOCYTE [2]: 13517.17 CELLS/uL | ABSOLUTE MONOCYTE [2]: 352.67 CELLS/uL | ABSOLUTE SEGMENTED NEUTROPHIL [2]: 1104.67 CELLS/uL | BASOPHIL [2]: 0% | EOSINOPHIL [2]: 1% | ERYTHROCYTE COUNT [2]: 5.73 x10E6/uL | HEMATOCRIT [2]: 36.85% | HEMOGLOBIN [2]: 13.67 G/DL | LEUKOCYTE COUNT [2]: 15.13 x10E3/uL | LYMPHOCYTE [2]: 89.5% | MEAN CORPUSCULAR HEMOGLOBIN [2]: 23.87 pg | MEAN CORPUSCULAR HEMOGLOBIN CONCENTRATION [2]: 37.1 G/DL | MEAN CORPUSCULAR VOLUME [2]: 64.33 fL | MONOCYTE [2]: 2.33% | NEUTROPHIL [2]: 7.17% | NUCLEATED RED BLOOD CELLS [2]: 0.17 /100WBC | PLATELET COUNT [2]: 1266 x10E3/uL | ALANINE AMINOTRANSFERASE [2]: 49.17 u/L | ALBUMIN [2]: 4.22 G/DL | ALKALINE PHOSPHATASE [2]: 352.67 u/L | ASPARTATE AMINOTRANSFERASE [2]: 95.17 u/L | BLOOD UREA NITROGEN [2]: 18.83 mg/dL | CARBON DIOXIDE [2]: 25.67 mmol/L | CHLORIDE [2]: 102.67 MEQ/L | CHOLESTEROL [2]: 66.83 mg/dL | CREATINE PHOSPHOKINASE [2]: 550.33 u/L | CREATININE [2]: 0.23 mg/dL | GLUCOSE [2]: 186.17 mg/dL | LACTATE DEHYDROGENASE [2]: 471.33 u/L | LIPASE [2]: 8.67 u/L | PHOSPHORUS [2]: 12.3 mg/dL | POTASSIUM [2]: 6.35 MEQ/L | SODIUM [2]: 143.57 MEQ/L | TOTAL BILIRUBIN [2]: 0.18 mg/dL | TOTAL PROTEIN [2]: 6.05 G/DL | URIC ACID [2]: 2 mg/dL | ABSOLUTE BASOPHIL [3]: 0 CELLS/uL | ABSOLUTE EOSINOPHIL [3]: 193 CELLS/uL | ABSOLUTE LYMPHOCYTE [3]: 10866.33 CELLS/uL | ABSOLUTE MONOCYTE [3]: 207.67 CELLS/uL | ABSOLUTE SEGMENTED NEUTROPHIL [3]: 899.67 CELLS/uL | BASOPHIL [3]: 0% | EOSINOPHIL [3]: 1.67% | ERYTHROCYTE COUNT [3]: 5.49 x10E6/uL | HEMATOCRIT [3]: 33.93% | HEMOGLOBIN [3]: 12.73 G/DL | LEUKOCYTE COUNT [3]: 12.17 x10E3/uL | LYMPHOCYTE [3]: 89.33% | MEAN CORPUSCULAR HEMOGLOBIN [3]: 23.23 pg | MEAN CORPUSCULAR HEMOGLOBIN CONCENTRATION [3]: 37.5 G/DL | MEAN CORPUSCULAR VOLUME [3]: 61.77 fL | MONOCYTE [3]: 1.67% | NEUTROPHIL [3]: 7.33% | NUCLEATED RED BLOOD CELLS [3]: 0.33 /100WBC | PLATELET COUNT [3]: 1240.67 x10E3/uL | ALANINE AMINOTRANSFERASE [3]: 42 u/L | ALBUMIN [3]: 4.1 G/DL | ALKALINE PHOSPHATASE [3]: 304.33 u/L | ASPARTATE AMINOTRANSFERASE [3]: 96.33 u/L | BLOOD UREA NITROGEN [3]: 16 mg/dL | CARBON DIOXIDE [3]: 25.33 mmol/L | CHLORIDE [3]: 104 MEQ/L | CHOLESTEROL [3]: 67 mg/dL | CREATINE PHOSPHOKINASE [3]: 595 u/L | CREATININE [3]: 0.25 mg/dL | GLUCOSE [3]: 148.67 mg/dL | LACTATE DEHYDROGENASE [3]: 798.67 u/L | LIPASE [3]: 9.33 u/L | PHOSPHORUS [3]: 11.97 mg/dL | POTASSIUM [3]: 6.35 MEQ/L | SODIUM [3]: 143.3 MEQ/L | TOTAL BILIRUBIN [3]: 0.17 mg/dL | TOTAL PROTEIN [3]: 5.4 G/DL | URIC ACID [3]: 1.33 mg/dL | ABSOLUTE BASOPHIL [4]: 0 CELLS/uL | ABSOLUTE EOSINOPHIL [4]: 64 CELLS/uL | ABSOLUTE LYMPHOCYTE [4]: 13587.67 CELLS/uL | ABSOLUTE MONOCYTE [4]: 429.67 CELLS/uL | ABSOLUTE SEGMENTED NEUTROPHIL [4]: 1452 CELLS/uL | BASOPHIL [4]: 0% | EOSINOPHIL [4]: 0.33% | ERYTHROCYTE COUNT [4]: 5.57 x10E6/uL | HEMATOCRIT [4]: 35.7% | HEMOGLOBIN [4]: 13.4 G/DL | LEUKOCYTE COUNT [4]: 15.53 x10E3/uL | LYMPHOCYTE [4]: 87.33% | MEAN CORPUSCULAR HEMOGLOBIN [4]: 24.07 pg | MEAN CORPUSCULAR HEMOGLOBIN CONCENTRATION [4]: 37.53 G/DL | MEAN CORPUSCULAR VOLUME [4]: 64.17 fL | MONOCYTE [4]: 2.67% | NEUTROPHIL [4]: 9.67% | NUCLEATED RED BLOOD CELLS [4]: 0 /100WBC | PLATELET COUNT [4]: 1260.33 x10E3/uL | ALANINE AMINOTRANSFERASE [4]: 54.33 u/L | ALBUMIN [4]: 4 G/DL | ALKALINE PHOSPHATASE [4]: 308.67 u/L | ASPARTATE AMINOTRANSFERASE [4]: 82.33 u/L | BLOOD UREA NITROGEN [4]: 21 mg/dL | CARBON DIOXIDE [4]: 26.33 mmol/L | CHLORIDE [4]: 103.67 MEQ/L | CHOLESTEROL [4]: 70.33 mg/dL | CREATINE PHOSPHOKINASE [4]: 420.67 u/L | CREATININE [4]: 0.21 mg/dL | GLUCOSE [4]: 181.67 mg/dL | LACTATE DEHYDROGENASE [4]: 60.33 u/L | LIPASE [4]: 7.67 u/L | PHOSPHORUS [4]: 12.23 mg/dL | POTASSIUM [4]: 6.34 MEQ/L | SODIUM [4]: 146.17 MEQ/L | TOTAL BILIRUBIN [4]: 0.17 mg/dL | TOTAL PROTEIN [4]: 6.03 G/DL | URIC ACID [4]: 1.87 mg/dL
